In patent US5849771A, “Phosphorylated nitrone derivatives, method for preparing same, and compositions containing said derivatives” (Centre National de la Recherche Scientifique (C.N.R.S.), priority 1995, dated 1998):
Read-outs that look alike come from different tables or passages of the source.

Experiments:
[1] = for adduct degradation, times more slowly than the POBN--OOH and PBN--OOH adducts: organic medium (DMF, pyridine), relative to POBN--OOH and PBN--OOH
From the text: The adducts from trapping with the superoxide radical were produced using the lumiflavin-DTPA system in pyridine, or dimethylformamide. This contains […] of DTPA, […] of lumiflavin and 0.1M of nitrone in pyridine or dimethylformamide.
The operating procedure followed for the study of the decrease of the adduct from trapping is the same as above.

[2] = Kinetics of decomposition (EPR) of superoxide trapping adducts (nitrone-OOH) in phosphate buffer medium; conditions: for Half-life time: decay of nitrone-OOH adduct, 0.1M phosphate buffer pH=5.8; for order of kinetics of disappearance of the adducts: phosphate buffer pH=5.8; for adduct degradation, times less quickly than the POBN--OOH adducts: phosphate buffer, relative to POBN--OOH
From the text: The adducts from trapping with the superoxide radical were produced using the riboflavin-DTPA (diethylenetriaminepentaacetic acid) system.
This system contains 1M of DTPA, […] of riboflavin and 0.1M of nitrone in a 0.1M phosphate buffer at pH=5.8.
This mixture is transferred into the cell of a Varian E-9 spectrometer. The cell is then irradiated to generate the superoxide radical in situ. At the end of irradiation the decrease in the adducts (nitrone-OOH) is studied using EPR analysis.

physchem = conditions: for lipophilic/hydrophilic character: from partition coefficients, n-octanol/phosphate buffer; for logD at 1 h: n-octanol/10 mm phosphate buffer, pH 7.4
Procedure: Biol. Med. 14 (1993) 127. The partition coefficients are defined simply as the ratio of the nitrone concentration in the lipophilic phase (n-octanol) to the nitrone concentration in the aqueous phase.
Identical volumes (2 cm^3) of the octanolic nitrone solution prepared above and of a 10 mM phosphate buffer of pH=7.4 are agitated vigorously at 37° C. for 1 hour and the two phases are then separated by centrifuging (1000 g for 20 s) . The respective nitrone concentrations in each phase are then measured.

[3] = EPR spin trapping of HO^. radicals (Fenton's method); conditions: phosphate buffer pH=7
Procedure: In this experiment the HO^. radicals were produced by Fenton's method in a 1.1M phosphate buffer at pH=7 in the presence of the […] system. This classical reaction for producing HO^. radicals can be expressed more simply as follows:
H2 O2 +Fe(II)→HO^. +HO-+Fe(III).
The EPR spectrum of the adduct from trapping is recorded approximately 40 s after addition of the ferrous sulphate.
(§1) The stability of these adducts makes it possible to measure the respective coupling constants of the unpaired electron with the nuclei of nitrogen (AN), of hydrogen β to the nitrogen atom (AH) and of phosphorus (AP). These values have been shown together in Table 3 which follows: […]

[4] = EPR spin trapping of O2^.-/HOO^. radicals (hypoxanthine/xanthine oxidase system); conditions: for EPR detection of trapping adduct: HOO^. radicals, hypoxanthine/xanthine oxidase, 0.1M phosphate buffer
Procedure: For the production of the HOO^. radicals the hypoxanthine/xanthine oxidase system is employed in a 0.1M phosphate buffer maintained at ambient temperature. The oxygen resulting in the formation of the HOO^. radicals is that initially dissolved in the 0.1M phosphate buffer.
The hypoxanthine/xanthine oxidase system contains 0.1M of a phosphate buffer, […] of hypoxanthine, 1 mM of diethylenetriaminepentaacetic acid (DTPA), 0.4 units cm^-3 of xanthine oxidase (marketed by the company Boehringer Mannheim Biochemica Co.), and 0.1M of the nitrone being tested. The EPR spectra of the adducts from trapping are recorded approximately 40 s after the addition of xanthine oxidase.
as §1

[5] = cerebral ischaemia-reperfusion or cerebral aging; cited from earlier work

For CC(C)(C)[N+]([O-])=Cc1cc[n+]([O-])cc1 [POBN, α-(1-oxydopyridin-1-ium-4-yl)-N-tert-butylnitrone, reference compound], which Half-life time ([1]; DMF) is on record?
Its Half-life time is 5.05 min.

And the Half-life time ([1]; pyridine)?
The Half-life time was 5.23 min.

What about the Half-life time [2] of the same molecule?
Its Half-life time is 0.317 min.

And the “order of kinetics of disappearance of the adducts” value (from here on “order”) [2]?
The value was “first order”.

For CCOP(=O)(OCC)C(C)(C)[N+]([O-])=Cc1cc[n+]([O-])cc1 [Example 2, Diethyl 1-[N-oxy-N-[4-(N'-oxypyridyl)formylene]amino]-1-methylethylphosphonate], which lipophilic/hydrophilic character (physchem) is on record?
Its lipophilic/hydrophilic character is “lipophilic”.

And the logD at 1 h (physchem)?
Its logD at 1 h is 2.29.

What about the Half-life time ([1]; DMF) of the same molecule?
Its Half-life time is 16.2 min.

And the k ([1]; DMF)?
Its k is 0.714 ± 0.007 10^3 s^-1.

What about the “adduct degradation, times more slowly than the POBN--OOH and PBN--OOH adducts” value [1] of the same molecule?
Its value is “approximately three”.

And the Half-life time ([1]; pyridine)?
Its Half-life time is 21.05 min.

And the k ([1]; pyridine)?
The k was 0.549 ± 0.003 10^3 s^-1.

What about the Half-life time [2] of the same molecule?
The Half-life time was 7.08 min.

What about the “order” value [2] of the same molecule?
The value was “first order”.

What about the “adduct degradation, times less quickly than the POBN--OOH adducts” value [2] of the same molecule?
Its value is “approximately 20 times”.

What does the source list for CCOP(=O)(OCC)C(C)(C)[N+]([O-])=Cc1ccc(Cl)cc1 [Example 4, Diethyl 1-[[N-(4-chlorophenyl)formylene]-N-oxyamino]-1-methylethylphosphonate]?
lipophilic/hydrophilic character (physchem): hydrophilic; logD at 1 h (physchem): -0.745; Half-life time ([1]; DMF): 15.2 min; adduct degradation, times more slowly than the POBN--OOH and PBN--OOH adducts [1]: approximately three; Half-life time ([1]; pyridine): 20.17 min; k ([1]; pyridine): 0.573 ± 0.001 10^3 s^-1

For CCOP(=O)(OCC)C(C)(C)[N+]([O-])=Cc1ccccc1 [Example 1, Diethyl 1-(N-benzylidene-N-oxy)amino-1-methylethyl-phosphonate], which “EPR detection of trapping adduct” value [3] is on record?
Its value is “formation of the adducts”.

And the “EPR detection of trapping adduct” value [4]?
Its value is “formation of the adducts”.

What about the Half-life time [2] of the same molecule?
The Half-life time was 5.12 min.

And the “order” value [2]?
The value was “first order”.

What about the “adduct degradation, times less quickly than the POBN--OOH adducts” value [2] of the same molecule?
Its value is “approximately 20 times”.

With CC(C)(C)[N+]([O-])=Cc1ccccc1 [PBN, α-phenyl-tert-butylnitrone, reference compound] as the molecule, how does the “EPR detection of trapping adduct” value [3] read?
The value was “No signal could be detected”.

And the “detection of the radical O2^.-” value ([4]; EPR spin trapping)?
The value was “cannot be carried out”.

And the “EPR detection of trapping adduct” value [4]?
The value was “No signal could be detected”.

And the “reversal of the harmful effects of oxygen-containing free radicals” value [5]?
Its value is “particularly effective”.

What about the Half-life time ([1]; DMF) of the same molecule?
The Half-life time was 4.18 min.

And the Half-life time ([1]; pyridine)?
Its Half-life time is 4.42 min.
